Test results reported in patent publication US6846842B2, “Pyruvate ester composition and method of use for resuscitation after events of ischemia and reperfusion” (Beth Israel Deconess Medical Center, Inc., priority 1999, dated 2005).

Legend:
[1] = test system: ischemia/reperfusion mucosal injury, small intestine; test: Rat model of superior mesenteric artery occlusion (ischemia/reperfusion mucosal injury and barrier dysfunction); format: in vivo, male Sprague-Dawley rats; conditions: for mucosal permeability (FITC-dextran, everted gut sac): during reperfusion; for mucosal thickness (MT) / villous height (VH): 28 mM infusate, mean ± SEM, n=6
Protocol: The model system and calculation parameters are illustrated in FIG. 3.
Heart rate and mean arterial blood pressure were measured via a right carotid arterial catheter. The left internal jugular vein was cannulated for intravenous infusions.
Controls (n=6) received lactated Ringer's solution (lactate, […], 111.5 ml/kg/hr infusion, 1.5 ml/kg bolus prior to ischemia, and a 3.0 ml/kg bolus prior to reperfusion). Experimental groups (n=6 each) received similar volumes (3 ml) of either pyruvate, Na salt (28 mM) or pyruvate ethyl ester (28 mM), prepared in accordance with the method of this invention as shown in Table 2 and at a dosage rate equivalent to 10 mg/kg/hr. Small intestinal mucosal-to-serosal permeability (CMS, nl/min/cm^2) of FITC- dextran (mw=4 kDA) was evaluated using an everted gut sac technique as previously described by Wattanasirichaigoon (1999). Permeability was measured at baseline, after 30 and 60 minutes of ischemia ([…]) respectively, and after 30 and 60 minutes of reperfusion (R30 and R60, respectively). Histologic samples at baseline, 160 and R60 were evaluated for villous height (VH, μ) and mucosal thickness (MT, μ). Mucosal injury grade was determined according to the method described by Chiu et al. (1970), scored as in Table 3, as follows:
Data were summarized as means±standard error of the mean. Significances of differences were determined using Student's t-test. Differences were considered significant for p<0.05.

[2] = concentrations of 1 Mol/liter or less, standing for 48 hrs; cited from earlier work
[3] = Stability and enolization of pyruvate esters in Ringer's solution (NMR, ultraviolet absorption); format: physicochemical; conditions: for absorbance: 28 mM solution, 300-340 nm; for average absorption, corrected for blanks: 1 mMolar solution, 230-260 nm
Protocol: Specifically, the preferred embodiment of this “pyruvated” Ringer's solution for use in NMR, stability, and subsequent biological studies is shown in Table 2.
Following the procedural recommendations for analysis of Margolis et al. (1986) with respect to scanning times and frequencies on a 400 MHz spectrometer operating in pulse. […] The ultraviolet absorptions of these solutions were also measured periodically over the 230-260 nm range and 300-340 nm span, where changes in enol formation become evident, and provided confirmatory evidence about the distinctly different salvation properties of pyruvate ester analogs in comparison to pyruvate salts applied in the various methods of prior art.
The experimental sequence in which to establish the greater utility of the pyruvate derivatives in this invention follows along the same lines as the comparative spectral experiments just described.
When 28 mM solutions were examined in a similar manner at 300-340 nm, the absorbance of pyruvate remained unchanged before and after calcium addition at a value of 0.03, while the ethyl pyruvate solutions become noticeably straw colored to the naked eye, rising in absorbance from 0.07 to 0.85. The yellow coloration and increases in spectrophotometric absorption in the ultraviolet region confirms the formation of a 1,3-conjugated ketone system, as would result from the enolization of ethylpyruvate under conditions which appear not to enolize pyruvic acid.

[4] = I60 (after 60 minutes of ischemia)
[5] = R60 (after 60 minutes of reperfusion)

| absorbance ([3]; after calcium addition) | absorbance ([3]; before calcium addition) | average absorption, corrected for blanks ([3]; absence of calcium, pH 7.2) | average absorption, corrected for blanks ([3]; after addition of calcium) | Compound | mucosal permeability (FITC-dextran, everted gut sac) ([1]; FIG. 4) | dimer (4-hydroxy-4-methyl-2-ketoglutaric acid) formed [2] | hydrate formed [2] | stability of aqueous solution ([3]; in the presence of calcium salts (Ringer's solution)) | mucosal thickness (MT) ([1]; Baseline) [μ] | villous height (VH) ([1]; Baseline) [μ] | mucosal injury score ([1]; Chiu grade 0-5 (Table 3), FIG. 5) | cytoprotection as judged by the extent of permeability increase ([1]; FIG. 4) | mucosal thickness (MT) [1, 4] [μ] | villous height (VH) [1, 4] [μ] | mucosal thickness (MT) [1, 5] [μ] | villous height (VH) [1, 5] [μ] | villous height and mucosal thickness ([1]; during both ischemia and reperfusion, p<0.01) |
| --- | --- | --- | --- | --- | --- | --- | --- | --- | --- | --- | --- | --- | --- | --- | --- | --- | --- |
|  |  |  |  | CC(=O)C(=O)[O-].[Na+] [Na Pyruvate (1), sodium pyruvate] | significantly decreased | 20-25% | 6-10% |  |  |  |  |  |  |  |  |  |  |
| 0.85 | 0.07 | 0.2 | 0.41 | CCOC(=O)C(C)=O [Ethyl pyruvate (4), ethyl pyruvate] | significantly decreased |  |  | more stable aqueous solution than sodium pyruvate | 583 | 486 ± 12 | significant diminution | significant trend towards effecting earlier and greater cytoprotection | 466 | 381 ± 24 | 352 | 296 ± 26 | significantly maintained |
|  |  |  |  | Lactate [reference compound] |  |  |  |  | 553 ± 34 | 470 ± 30 |  |  | 298 ± 32 | 244 ± 20 | 141 ± 22 | 130 ± 25 |  |
|  |  | 0.15 |  | CC(=O)C(=O)O [pyruvic acid, reference compound] |  |  |  |  |  |  |  |  |  |  |  |  |  |
